Earlier results as cited in US6344218B1, “Skin deodorizing and santizing compositions” (The Procter & Gamble Company, priority 1998, dated 2002).
Counter-ions that a name gives are not always drawn.

Row | SMILES | solubility in water
1 | OCCOc1ccccc1 [2-phenoxyethanol] | about 2.67%
2 | OCCc1ccccc1 [2-phenylethanol] | about 2%
3 | O=[N+]([O-])C1(Br)COCOC1 [Bronidox L, 5-bromo-5-nitro-1,3-dioxane] | about 0.46%
4 | O=[N+]([O-])C(Br)(CO)CO [Bronopol, 2-bromo-2-nitropropane-1,3-diol] | about 25%
5 | CC1(C)C(=O)N(CO)C(=O)N1CO [DMDM hydantoin, 1,3-bis(hydroxymethyl)-5,5-dimethyl-2,4-imidazolidinedione] | more than 50%
6 | ClC=CC[N+]12CN3CN(CN(C3)C1)C2.[Cl-] [Dowicil 200, 1-(3-Chlorallyl)-3,5,7-triaza-1-azoniaadamantane chloride] | freely soluble in water
7 | OCc1ccccc1 [benzyl alcohol] | about 4%
8 | CC(C)(O)C(Cl)(Cl)Cl [chlorobutanol, 1,1,1-Trichloro-2-methylpropan-2-ol] | about 0.8%
9 | [H]/N=C(\N/C(=N/[H])NCCCCCCNC(=N)NC(=N)Nc1ccc(Cl)cc1)Nc1ccc(Cl)cc1 [diacetate salt, 1,1′-hexamethylene bis(5-(p-chlorophenyl)biguanide), reference compound] | about 1.8%
10 | [H]/N=C(\N/C(=N/[H])NCCCCCCNC(=N)NC(=N)Nc1ccc(Cl)cc1)Nc1ccc(Cl)cc1 [digluconate salt, 1,1′-hexamethylene bis(5-(p-chlorophenyl)biguanide), reference compound] | about 70%
11 | [Na+].[O-][n+]1ccccc1[S-] [sodium pyrithione] | about 50%
